Laboratory results published in US6441000B1, “Compounds useful in therapy” (Pfizer Inc, priority 1999, dated 2002).
pKi: −log10 of the molar value.

Each compound was assayed against T1, mu opioid receptor (Canis lupus familiaris, UniProt A0A0F6TMT6) (assay: mu opioid receptor binding assay (displacement of 3H-DAMGO) in dog brain membranes). Conditions: 3H ligand DAMGO, room temperature 90 minutes, read-out: Ki values for the μ receptor.
T1 construct: from tissue; host or cells: beagle brain without cerebellum, membrane homogenate
Procedure: The assays were conducted by the following procedure.
Laboratory bred beagles were used as a source of dog brain tissue. Animals were euthanised, their brains removed and the cerebellum discarded. The remaining brain tissue was sectioned into small pieces approximately 3 g in weight and homogenised in 50 mM Tris pH 7.4 buffer at 4° C. using a Kinematica Polytron™ tissue homogeniser. The resulting homogenate was centrifuged at 48,400×g for 10 minutes and the supernatant discarded. The pellet was resuspended in Tris buffer and incubated at 37° C. for 10 minutes. Centrifugation, resuspension and incubation steps were repeated twice more, and the final pellet was resuspended in Tris buffer and stored at −80° C. Membrane material prepared in this manner could be stored for up to four weeks prior to use.
For mu assays, increasing concentrations of experimental compound, (5×10^−12 to 10^−5 M), Tris buffer and ^3H ligand, ([D-Ala^2,N-Me-Phe^4,Gly-ol^5]-Enkephalin, DAMGO), were combined in polystyrene tubes. The reaction was initiated by the addition of tissue, and the mixture was incubated at room temperature for 90 minutes. The reaction was terminated by rapid filtration using a Brandel Cell Harvester™ through Betaplate™ GF/A glass fibre filters pre-soaked in 50 mM Tris pH 7.4, 0.1% polyethylenimine buffer. The filters were then washed three times with 0.5 mL ice-cold Tris pH 7.4 buffer. Washed filters were placed in bags and Starscint™ scintillant added. Bags containing the filters and scintillant were heat sealed and counted by a Betaplate™ 1204 beta counter.
Duplicate samples were run for each experimental compound and the data generated was analysed using IC50 analysis software in Graphpad Prism.
Ki values were calculated using Graphpad Prism according to the following formula:
Ki=IC50/1+[^3H ligand]/KD
where IC50 is the concentration at which 50% of the ^3H ligand is displaced by the test compound and KD is the dissociation constant for the ^3H ligand at the receptor site.

T1 sequence (A0A0F6TMT6 1-401): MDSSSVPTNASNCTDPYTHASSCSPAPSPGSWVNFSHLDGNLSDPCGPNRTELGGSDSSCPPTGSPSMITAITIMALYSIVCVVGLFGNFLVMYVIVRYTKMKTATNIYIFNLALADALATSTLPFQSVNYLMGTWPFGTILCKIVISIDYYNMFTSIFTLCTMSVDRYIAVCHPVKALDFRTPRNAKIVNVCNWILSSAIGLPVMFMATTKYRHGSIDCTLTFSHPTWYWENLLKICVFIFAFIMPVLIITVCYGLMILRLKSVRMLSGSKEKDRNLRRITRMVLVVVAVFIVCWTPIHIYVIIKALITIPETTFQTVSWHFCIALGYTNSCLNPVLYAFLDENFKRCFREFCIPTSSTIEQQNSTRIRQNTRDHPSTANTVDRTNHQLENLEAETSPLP

Question: CCCCCCN1CCC(C)(c2ccc3[nH]c(CC)nc3c2)C(C)C1 (racemic) [Example 12, Trans-(±)-2-ethyl-5-(1-Hexyl-3,4-dimethyl-4-piperidinyl)-1H-benzimidazole] was tested. Which pKi did it give?
Answer: Its pKi is at least 5.40.

Question: CC(C)CCCCN1CCC(C)(c2ccc3[nH]cnc3c2)C(C)C1 (racemic) [Example 21, Trans-(±)-5-[1-(5-Methylhexyl)-3,4-dimethyl-4-piperidinyl]-1H-benzimidazole] was tested. Which pKi did it give?
Answer: The pKi was at least 5.40.

Question: How did the pKi turn out when CCCCCCN1CCC(C)(c2ccc3nc(C)oc3c2)C(C)C1 (racemic) [Example 28, Trans-(±)-2-Methyl-6-(1-hexyl-3,4-dimethyl-4-piperidinyl)-1,3-benzoxazole] was run?
Answer: The pKi was at least 5.40.

Question: How did the pKi turn out when Cc1cccc(CCN2CCC(C)(c3ccc4[nH]c(C(F)(F)F)nc4c3)C(C)C2)c1 (racemic) [Example 18, Trans-(±)-2-(Trifluoromethyl)-5-[1-(3-methylphenethyl)-3,4-dimethyl-4-piperidinyl]-1H-benzimidazole] was run?
Answer: The pKi was at least 5.40.

Question: CCCCCCN1CCC(C)(c2ccc3[nH]c(C)nc3c2)C(C)C1 (racemic) [Example 3, Trans-(±)-2-Methyl-5-(1-hexyl-3,4-dimethyl-4-piperidinyl)-1H-benzimidazole] was tested. Which pKi did it give?
Answer: Its pKi is at least 5.40.

Question: CCCCCCN1CCC(C)(c2ccc3[nH]c(OC)nc3c2)C(C)C1 (racemic) [Example 7, Trans-(±)-2-Methoxy-5-(1-hexyl-3,4-dimethyl-4-piperidinyl)-1H-benzimidazole] was tested. Which pKi did it give?
Answer: Its pKi is at least 5.40.
